Measurements as given in ChEMBL document CHEMBL2311483, “HCV NS5A replication complex inhibitors. Part 3: discovery of potent analogs with distinct core topologies” (Bioorg Med Chem Lett, 2013).
Converted amounts (≈) assume the structure as drawn.

Columns and labels:
[1] = Cytotoxicity against human HuH7 cells after 72 hrs by Alamar blue assay; assay type: cell-based, Huh-7
[2] = system: Bovine viral diarrhea virus 1; test: Antiviral activity against Bovine viral diarrhea virus infected in human HuH7 cells assessed as inhibition of viral replication by luciferase reporter gene assay; assay type: functional, organism-based; conditions: Bovine viral diarrhea virus isolates and strains, Huh-7
[3] = system: Hepatitis C virus; test: Antiviral activity against HCV1b harboring NS5B infected in human HuH7 cells assessed as inhibition of viral replication after 72 hrs by FRET assay; assay type: functional, organism-based, Hepacivirus hominis; conditions: genotype 1b, Huh-7, 72 h
[4] = Solubility of the compound in phosphate buffer at pH 6.5; assay type: physicochemical

O=C(Nc1ccc(/C=C/c2ccc(NC(=O)[C@@H]3CCCN3C(=O)Cc3ccccc3)cc2)cc1)[C@@H]1CCCN1C(=O)Cc1ccccc1
CC50 at 72 h [1]: > 10 µM | EC50 [2]: > 10 µM | EC50 [3]: 0.09 nM

O=C(Nc1ccc(-c2ccc(NC(=O)[C@@H]3CCCN3C(=O)Cc3ccccc3)cc2)cc1)[C@@H]1CCCN1C(=O)Cc1ccccc1
EC50 [3]: 205 nM

O=C(Nc1ccc(CN2CCc3cc(NC(=O)[C@@H]4CCCN4C(=O)Cc4ccccc4)ccc3C2)cc1)[C@@H]1CCCN1C(=O)Cc1ccccc1
CC50 at 72 h [1]: > 10 µM | EC50 [2]: > 10 µM | EC50 [3]: 159 nM

O=C(Nc1cccc(CN2CCc3ccc(NC(=O)[C@@H]4CCCN4C(=O)Cc4ccccc4)cc3C2)c1)[C@@H]1CCCN1C(=O)Cc1ccccc1
CC50 at 72 h [1]: > 10 µM | EC50 [2]: > 10 µM | EC50 [3]: 3890 nM

O=C(Nc1ccc(-c2nnc(-c3ccc(NC(=O)[C@@H]4CCCN4C(=O)Cc4ccccc4)cc3)o2)cc1)[C@@H]1CCCN1C(=O)Cc1ccccc1
CC50 at 72 h [1]: > 10 µM | EC50 [2]: > 10 µM | EC50 [3]: 149 nM

O=C(Nc1ccc(-c2cnc(-c3ccc(NC(=O)[C@@H]4CCCN4C(=O)Cc4ccccc4)cc3)o2)cc1)[C@@H]1CCCN1C(=O)Cc1ccccc1
CC50 at 72 h [1]: > 10 µM | EC50 [2]: > 10 µM | EC50 [3]: 2.38 nM

O=C(Nc1ccc(-c2coc(-c3ccc(NC(=O)[C@@H]4CCCN4C(=O)Cc4ccccc4)cc3)n2)cc1)[C@@H]1CCCN1C(=O)Cc1ccccc1
CC50 at 72 h [1]: > 10 µM | EC50 [2]: > 10 µM | EC50 [3]: 1.32 nM

O=C(Nc1ccc(-c2ccc(-c3ccc(NC(=O)[C@@H]4CCCN4C(=O)Cc4ccccc4)cc3)s2)cc1)[C@@H]1CCCN1C(=O)Cc1ccccc1
CC50 at 72 h [1]: > 10 µM | EC50 [2]: > 10 µM | EC50 [3]: 14.7 nM

O=C(Nc1ccc(-c2c[nH]c(-c3ccc(NC(=O)[C@@H]4CCCN4C(=O)Cc4ccccc4)cc3)n2)cc1)[C@@H]1CCCN1C(=O)Cc1ccccc1
CC50 at 72 h [1]: > 10 µM | EC50 [2]: > 10 µM | EC50 [3]: 67.2 nM

O=C(Nc1ccc(-c2cc(-c3ccc(NC(=O)[C@@H]4CCCN4C(=O)Cc4ccccc4)cc3)[nH]n2)cc1)[C@@H]1CCCN1C(=O)Cc1ccccc1
CC50 at 72 h [1]: > 10 µM | EC50 [2]: > 10 µM | EC50 [3]: 0.71 nM

Cn1nc(-c2ccc(NC(=O)[C@@H]3CCCN3C(=O)Cc3ccccc3)cc2)cc1-c1ccc(NC(=O)[C@@H]2CCCN2C(=O)Cc2ccccc2)cc1
CC50 at 72 h [1]: > 10 µM | EC50 [2]: > 10 µM | EC50 [3]: 181 nM

O=C(Nc1ccc(/C=C\c2ccc(NC(=O)[C@@H]3CCCN3C(=O)Cc3ccccc3)cc2)cc1)[C@@H]1CCCN1C(=O)Cc1ccccc1
CC50 at 72 h [1]: > 10 µM | EC50 [2]: > 10 µM | EC50 [3]: 12.4 nM

O=C(Nc1ccc([C@H]2C[C@@H]2c2ccc(NC(=O)[C@@H]3CCCN3C(=O)Cc3ccccc3)cc2)cc1)[C@@H]1CCCN1C(=O)Cc1ccccc1
CC50 at 72 h [1]: > 10 µM | EC50 [2]: > 10 µM | solubility [4]: 3 µg/mL (≈ 4.58 µM) | EC50 [3]: 5.66 nM

O=C(Nc1ccc([C@H]2C[C@H]2c2ccc(NC(=O)[C@@H]3CCCN3C(=O)Cc3ccccc3)cc2)cc1)[C@@H]1CCCN1C(=O)Cc1ccccc1
CC50 at 72 h [1]: > 10 µM | EC50 [2]: > 10 µM | EC50 [3]: 796 nM

O=C(Nc1ccc(NC(=O)[C@@H]2CCCN2C(=O)Cc2ccccc2)cc1)c1ccc(NC(=O)[C@@H]2CCCN2C(=O)Cc2ccccc2)cc1
CC50 at 72 h [1]: > 10 µM | EC50 [2]: > 10 µM | EC50 [3]: 11 nM

CN(C(=O)c1ccc(NC(=O)[C@@H]2CCCN2C(=O)Cc2ccccc2)cc1)c1ccc(NC(=O)[C@@H]2CCCN2C(=O)Cc2ccccc2)cc1
CC50 at 72 h [1]: > 10 µM | EC50 [2]: > 10 µM | EC50 [3]: 6250 nM

O=C(Nc1ccc(N2CCc3cc(NC(=O)[C@@H]4CCCN4C(=O)Cc4ccccc4)ccc3C2)nc1)[C@@H]1CCCN1C(=O)Cc1ccccc1
CC50 at 72 h [1]: > 10 µM | EC50 [2]: > 10 µM | EC50 [3]: 1.74 nM

O=C(Nc1ccc(-c2nc3ccc(NC(=O)[C@@H]4CCCN4C(=O)Cc4ccccc4)cc3[nH]2)cc1)[C@@H]1CCCN1C(=O)Cc1ccccc1
CC50 at 72 h [1]: > 10 µM | EC50 [2]: > 10 µM | EC50 [3]: 1050 nM

O=C(Nc1ccc(CCc2ccc(NC(=O)[C@@H]3CCCN3C(=O)Cc3ccccc3)cc2)cc1)[C@@H]1CCCN1C(=O)Cc1ccccc1
CC50 at 72 h [1]: > 10 µM | EC50 [2]: > 10 µM | EC50 [3]: 6.01 nM

O=C(Nc1ccc(COc2ccc(NC(=O)[C@@H]3CCCN3C(=O)Cc3ccccc3)cc2)cc1)[C@@H]1CCCN1C(=O)Cc1ccccc1
CC50 at 72 h [1]: > 10 µM | EC50 [2]: > 10 µM | EC50 [3]: 97.8 nM

O=C(Nc1ccc(C#Cc2ccc(NC(=O)[C@@H]3CCCN3C(=O)Cc3ccccc3)cc2)cc1)[C@@H]1CCCN1C(=O)Cc1ccccc1
CC50 at 72 h [1]: > 10 µM | EC50 [2]: > 10 µM | EC50 [3]: 6.24 nM

O=C(Nc1ccc(-c2nc[nH]c2-c2ccc(NC(=O)[C@@H]3CCCN3C(=O)Cc3ccccc3)cc2)cc1)[C@@H]1CCCN1C(=O)Cc1ccccc1
CC50 at 72 h [1]: > 10 µM | EC50 [2]: > 10 µM | EC50 [3]: 20.9 nM

O=C(Nc1ccc(-c2nn[nH]c2-c2ccc(NC(=O)[C@@H]3CCCN3C(=O)Cc3ccccc3)cc2)cc1)[C@@H]1CCCN1C(=O)Cc1ccccc1
CC50 at 72 h [1]: > 10 µM | EC50 [2]: > 10 µM | EC50 [3]: 8.18 nM

O=C(Nc1ccc(-c2c[nH]nc2-c2ccc(NC(=O)[C@@H]3CCCN3C(=O)Cc3ccccc3)cc2)cc1)[C@@H]1CCCN1C(=O)Cc1ccccc1
CC50 at 72 h [1]: > 10 µM | EC50 [2]: > 10 µM | EC50 [3]: 4.57 nM

O=C(Nc1ccc(Cc2ccc(NC(=O)[C@@H]3CCCN3C(=O)Cc3ccccc3)cc2)cc1)[C@@H]1CCCN1C(=O)Cc1ccccc1
CC50 at 72 h [1]: > 10 µM | EC50 [2]: > 10 µM | EC50 [3]: 1700 nM

O=C(Nc1ccc(Oc2ccc(NC(=O)[C@@H]3CCCN3C(=O)Cc3ccccc3)cc2)cc1)[C@@H]1CCCN1C(=O)Cc1ccccc1
CC50 at 72 h [1]: > 10 µM | EC50 [2]: > 10 µM | EC50 [3]: 1990 nM

O=C(c1ccc(NC(=O)[C@@H]2CCCN2C(=O)Cc2ccccc2)cc1)c1ccc(NC(=O)[C@@H]2CCCN2C(=O)Cc2ccccc2)cc1
CC50 at 72 h [1]: > 10 µM | EC50 [2]: > 10 µM | EC50 [3]: 3950 nM

CC(C)(c1ccc(NC(=O)[C@@H]2CCCN2C(=O)Cc2ccccc2)cc1)c1ccc(NC(=O)[C@@H]2CCCN2C(=O)Cc2ccccc2)cc1
CC50 at 72 h [1]: > 10 µM | EC50 [2]: > 10 µM | EC50 [3]: 638 nM

O=C(Nc1ccc(CCCc2ccc(NC(=O)[C@@H]3CCCN3C(=O)Cc3ccccc3)cc2)cc1)[C@@H]1CCCN1C(=O)Cc1ccccc1
CC50 at 72 h [1]: > 10 µM | EC50 [2]: > 10 µM | EC50 [3]: 36.1 nM

CN1Cc2cc(NC(=O)[C@@H]3CCCN3C(=O)Cc3ccccc3)ccc2CC1c1ccc(NC(=O)[C@@H]2CCCN2C(=O)Cc2ccccc2)cc1 (mixture of isomers)
CC50 at 72 h [1]: > 10 µM | EC50 [2]: > 10 µM | solubility [4]: 135 µg/mL | EC50 [3]: 13.9 nM
